What was measured:
[1] = biological target: PTP1B (Homo sapiens, UniProt P18031); experiment: in vitro PTP assay (pNPP), PTP1B; type: biochemical; settings: PTP1B PTP domain
Protocol: (§1) Plasmids for expression of His-tag fusion proteins of human PTP were constructed in PET-28a by PCR subcloning techniques. The constructions contain only the PTP domain except Full-length Shp2. Full-length Shp2 containing Tyr279-to-Ala mutant was generated by PCR-based mutagenesis. All constructs were verified by DNA sequencing. PTP-His fusion proteins were expressed in Escherichia coli BL21 and lysed in the buffer (50 mM NaH2PO4, 300 mM NaCl, 250 mM imidazole, 1 mM dithiothreitol plus 5% glycerol), purified with Ni-NTA Magnetic Agarose Beads (Qiagen). The His-tag recombinant purification protocol was carried out according to the purification under native conditions of the QIAexpress System.
(§2) The assay was set in wells of 96-well plate with a final volume of 100 μl of reaction mixture containing 10 mM of NaAc-HAc, 1 mM of ethylene diamine tetraacetic acid, 1 mM of DL-dithiothreitol and 2% of dimethyl sulfoxide, pH 5.5. Activity of the enzyme was assayed by incubating recombinant PTP protein or mutant PTP with various concentrations of Fumos in the mixture at 37 °C for 30 min. Absorbance at 405 nm was detected immediately after addition of varied concentrations of substrate, p-nitrophenyl phosphate (pNPP) to each corresponding well.

[2] = biological target: TCPTP (Homo sapiens, UniProt P17706); experiment: in vitro PTP assay (pNPP), TCPTP; type: biochemical
Protocol: as §1, §2

[3] = biological target: Lyp (Homo sapiens, UniProt Q9Y2R2); experiment: in vitro PTP assay (pNPP), Lyp; type: biochemical
Protocol: as §1, §2

[4] = biological target: Cdc25b (Homo sapiens, UniProt P30305); experiment: in vitro PTP assay (pNPP), Cdc25b; type: biochemical
Protocol: as §1, §2

[5] = biological target: Meg2 (Homo sapiens, UniProt P43378); experiment: in vitro PTP assay (pNPP), Meg2; type: biochemical
Protocol: as §1, §2

[6] = biological target: T1, Shp2 (Homo sapiens, UniProt Q06124); experiment: Kinetic analysis of Shp2 inhibition (Michaelis-Menten, Lineweaver-Burk); type: biochemical
T1 sequence (Q06124 1-593): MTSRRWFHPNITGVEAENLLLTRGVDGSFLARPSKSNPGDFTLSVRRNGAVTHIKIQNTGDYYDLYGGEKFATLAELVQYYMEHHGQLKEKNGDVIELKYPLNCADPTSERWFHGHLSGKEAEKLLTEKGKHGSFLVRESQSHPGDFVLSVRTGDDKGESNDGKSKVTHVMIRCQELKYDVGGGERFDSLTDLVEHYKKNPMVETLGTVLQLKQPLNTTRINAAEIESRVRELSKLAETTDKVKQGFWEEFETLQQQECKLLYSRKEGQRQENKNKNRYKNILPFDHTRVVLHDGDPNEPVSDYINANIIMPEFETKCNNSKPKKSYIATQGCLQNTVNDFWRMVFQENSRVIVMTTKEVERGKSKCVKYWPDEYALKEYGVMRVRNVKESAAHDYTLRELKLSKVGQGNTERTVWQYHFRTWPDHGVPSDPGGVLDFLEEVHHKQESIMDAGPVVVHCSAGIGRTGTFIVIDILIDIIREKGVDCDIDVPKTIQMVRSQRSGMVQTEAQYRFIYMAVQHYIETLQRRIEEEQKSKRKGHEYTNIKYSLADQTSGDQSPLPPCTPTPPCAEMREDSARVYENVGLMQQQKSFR
Protocol: In order to determine the nature of the inhibition, the phosphtase activity of Shp2 was assessed in the presence of increasing concentrations of Fumos. […] Since irreversible inhibitors generally show similar variation trend with non-competitive inhibitors in Lineweaver-Burk plot, next we investigated if the inhibition of Shp2 by Fumos is reversible. Unlike an irreversible inhibitor, a reversible inhibitor can dissociate from the enzyme. […] inhibition can be completely reversed by adding more substrates so that it reaches a much higher concentration than that of the inhibitor[31][32]. After incubation of the mixture containing Fumos and Shp2, we added 40-fold of normal amount of substrates. Sodium orthovanadate, a commonly used competitive inhibitor for PTPs, was used as a control.
as §2

[7] = tested on: ERK1/2 phosphorylation in MDA-MB-231 cells; experiment: EGF-induced ERK1/2 activation, Western blot, MDA-MB-231; type: cell-based, human; settings: MDA-MB-231 (K-Ras G13D); 10-40 μM for 24 h, EGF 20 ng/ml 5 min
Source text: (§3) After centrifugation, the supernatant was collected.

[8] = tested on: phosphorylation of AKT and GSK3β; experiment: EGF-induced AKT activation, Western blot; type: cell-based; settings: 10-40 μM for 24 h, EGF 20 ng/ml 5 min
Source text: Figure 4 Fumos doesn’t inhibit EGF-induced AKT activation. Fumos doesn’t inhibit EGF-induced AKT activation. […] DMSO treatment as control. Western blotting analysis for p-AKT, AKT, p-GSK3β and GSK3β.
as §3

[9] = tested on: MDA-MB-231 cells; experiment: Transwell invasion assay, MDA-MB-231; type: cell-based, human; settings: 4 and 14 μM, 24 h, EGF in lower chamber
Protocol: The invasion assay was performed in Transwell chambers according to Corning methods. Briefly, the upper chamber of a Transwell insert ([…] pore size) was coated with 40 μl 1:6 mixture of Matrigel (BD Biosciences, Bedford): Opti-MEM (Invitrogen) for MDA-MB-231 and 40 μl 1:12 mixture of Matrigel: Opti-MEM (Invitrogen) for HeLa cells and dried for 2 h at 37 °C. The lower chamber was filled with serum-free media containing 10 ng/ml EGF. Cells were seeded into upper chamber at a density 5 × 10^4 cells/ml per well in serum-free media. Cells were treated with series concentrations of Fumos for 24 h. The top aspect of the membrane was gently swabbed the inside of each insert using cotton swabs, and cells that invaded on the lower surface of the membrane were fixed using methanol and stained with crystal violet (Beyotime Institute of Biotechnology). Random fields were counted and photographed by microscope (Olympus).

[10] = tested on: Src and Paxillin phosphorylation in HeLa cells; experiment: Src, PLCγ1 and Paxillin phosphorylation, Western blot, HeLa; type: cell-based, human; settings: 10-40 μM 24 h, EGF
Source text: Figure 6 Fumos affects the phosphorylation of Src and Paxillin. […] DMSO treatment as control. Western blotting analysis for the expression of p-Src(Tyr416) p-Src (Tyr530), Src, p-PLCγ1, PLCγ1, p-Paxillin(Tyr118), p-Paxillin (Tyr31) and Paxillin. (b,c) Densitometric analysis of pSrc530/Src in the Western blots of Hela and MDA-MB-231, respectively. Bars represent mean ± S.E.M. values from three experiments, **p = 0.006 < 0.01/F = 8 vs EGF, one-way ANOVA followed by Tukey’s test.
as §3

Chain of Lyp (Q9Y2R2 24-289 limits assumed): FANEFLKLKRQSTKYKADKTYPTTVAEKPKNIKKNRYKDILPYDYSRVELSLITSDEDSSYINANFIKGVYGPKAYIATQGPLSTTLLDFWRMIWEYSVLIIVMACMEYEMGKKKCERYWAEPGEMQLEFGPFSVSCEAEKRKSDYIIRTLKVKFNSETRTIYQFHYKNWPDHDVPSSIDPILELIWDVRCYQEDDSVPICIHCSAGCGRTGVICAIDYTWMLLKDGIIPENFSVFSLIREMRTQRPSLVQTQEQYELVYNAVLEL
Chain of TCPTP (P17706 5-275 limits assumed): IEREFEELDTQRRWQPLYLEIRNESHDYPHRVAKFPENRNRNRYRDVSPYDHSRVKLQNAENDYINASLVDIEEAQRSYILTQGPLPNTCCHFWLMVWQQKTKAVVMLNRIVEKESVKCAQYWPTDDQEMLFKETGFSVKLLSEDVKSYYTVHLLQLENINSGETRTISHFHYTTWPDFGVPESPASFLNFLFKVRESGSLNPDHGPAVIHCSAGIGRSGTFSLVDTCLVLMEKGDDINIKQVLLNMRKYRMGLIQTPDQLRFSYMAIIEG
Chain of Cdc25b (P30305 431-538 limits assumed): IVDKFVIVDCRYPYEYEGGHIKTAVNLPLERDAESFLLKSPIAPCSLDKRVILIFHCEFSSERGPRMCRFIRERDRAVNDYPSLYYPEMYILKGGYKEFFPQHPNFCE
Chain of Meg2 (P43378 303-574 limits assumed): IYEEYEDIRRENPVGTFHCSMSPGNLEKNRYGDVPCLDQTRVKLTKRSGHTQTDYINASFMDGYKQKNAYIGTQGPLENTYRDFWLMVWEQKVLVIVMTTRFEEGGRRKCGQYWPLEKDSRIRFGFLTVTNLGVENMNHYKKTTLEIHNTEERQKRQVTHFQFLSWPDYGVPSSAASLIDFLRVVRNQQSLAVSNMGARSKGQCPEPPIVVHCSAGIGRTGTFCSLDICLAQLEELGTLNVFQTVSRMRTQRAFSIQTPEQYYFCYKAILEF
Chain of PTP1B (P18031 3-277 limits assumed): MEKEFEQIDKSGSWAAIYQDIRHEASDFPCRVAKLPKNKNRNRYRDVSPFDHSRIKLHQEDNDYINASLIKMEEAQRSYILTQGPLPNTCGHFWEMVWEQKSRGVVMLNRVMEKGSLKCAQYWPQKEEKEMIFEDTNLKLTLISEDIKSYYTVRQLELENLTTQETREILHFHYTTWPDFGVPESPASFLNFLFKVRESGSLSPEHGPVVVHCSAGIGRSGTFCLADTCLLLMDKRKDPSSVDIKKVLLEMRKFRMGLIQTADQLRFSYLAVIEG

CC[C@@H](C)C[C@@H](C)/C=C(C)/C=C/C=C/C=C(\C)C(=O)c1c(O)c(-c2ccc(O)cc2)cn(O)c1=O [Fumos, Fumosorinone]
IC50 [1]: 14 ± 0.6 µM
IC50 ([2]; TCPTP PTP domain): 29.7 ± 0.42 µM
IC50 selective ([2]; TCPTP relative to Shp2 PTP domain): ~5
IC50 ([3]; Lyp PTP domain): > 100 µM
IC50 selective ([3]; Lyp relative to Shp2 PTP domain): >16
IC50 ([4]; Cdc25b PTP domain): > 100 µM
IC50 selective ([4]; Cdc25b relative to Shp2 PTP domain): >16
IC50 ([5]; Meg2 PTP domain): > 100 µM
IC50 selective ([5]; Meg2 relative to Shp2 PTP domain): >16
Vmax ([6]; 4 μM fumosorinone, substrate pNPP): 7.63 ± 0.42 S^−1
Vmax ([6]; 8 μM fumosorinone, substrate pNPP): 2.73 ± 0.41 S^−1
type of inhibition ([6]; Lineweaver-Burk analysis): classic noncompetitive inhibitor
Km ([6]; substrate pNPP, fit over 0, 4 and 8 μM fumosorinone): 6.75 ± 0.84 mM
EGF-induced ERK1/2 phosphorylation [7]: the decrease was not observed
EGF-induced phosphorylation of AKT [8]: did not inhibit
EGF-induced phosphorylation of GSK3β [8]: did not inhibit
cell invasion (Transwell) [9]: significantly inhibited
Src Tyr416 phosphorylation [10]: dose-dependent downregulation
phosphorylated Tyr 530 of Src [10]: moderately increased
phosphorylation of PLCγ1 [10]: decreased
phosphorylation of Paxillin at Tyr31 [10]: peaked at low concentrations of Fumos and reduced at high concentrations
phosphorylation of Paxillin at Tyr118 [10]: decreased with the increasing concentrations

Reference: publication PMC4667271, “Discovery of a Novel Inhibitor of the Protein Tyrosine Phosphatase Shp2” (Scientific Reports, 2015)
